Test results taken from patent publication US20040186082A1, “Enhanced phototherapy for the treatment of cancer and autoimmune disease” (priority 2003, published 2004).

Test system: psoriatic lesion on the leg
Assay: Treatment of a psoriatic lesion with topical ointment and UVB irradiation (single patient)
Assay type: in vivo
Conditions: VES 20 mg/gram ointment applied 1 day after provitamin D + UVB (3 MED); within 12 hours
Protocol: Treatment of psoriasis with UVB irradiation. A patient with a ½ inch round psoriatic lesion on the leg was treated with provitamin D (35 mg/gram ointment) and irradiated with UVB (3 MED). […] The formally lesional tissue looked like normal healthy tissue.

Cc1c(C)c2c(c(C)c1OC(=O)CCC(=O)O)CC[C@@](C)(CCC[C@H](C)CCC[C@H](C)CCCC(C)C)O2 [Vitamin E succinate]
appearance of the treated tissue (induration, redness): the tissue was not indurated and the redness disappeared
